{"source": "patent US11975003B2", "about": "“Methods and compositions for treatment of Zika virus infection” (priority 2016, dated 2024)", "key": {"Zika virus Uganda MR 766 [1]": {"test_system": "Zika virus Uganda MR 766", "test": "CPE reduction assay (neutral red uptake)", "format": "cell-based", "protocol": "(§1) The compounds were administered at a range of concentrations up to 100 μg/ml. Compounds were prepared in MEM just prior to testing. Inhibition of virus replication was determined by microscopic examination of the infected cells for cytopathic effect, increase of neutral red (NR) dye uptake (colorimetric determination), and virus yield reduction. Uninfected cells treated with a compound were assayed as above for cytotoxicity control. The EC50, EC90 and SI (selectivity index) values were determined in Vero76, Huh7 and RD cells as analyzed by the neutral red uptake dye assay and virus yield reduction assays. The results are presented from 3 or more independent experiments (standard deviations not shown. Three Zika virus strains were used in this in vitro study, Malaysia strain P 6-740, Uganda strain MR-766 and Puerto Rico strain PRVABC-59. Cells were maintained under standard conditions."}, "[2]": {"test_system": "Zika virus Malaysia P 6-740", "test": "CPE reduction assay (neutral red uptake)", "format": "cell-based", "protocol": "as §1"}, "[3]": {"test_system": "Zika virus Puerto Rico PRVABC59", "test": "CPE reduction assay (neutral red uptake)", "format": "cell-based", "conditions": "Puerto Rico PRVABC59", "protocol": "as §1"}, "[4]": {"test_system": "Zika virus (Malaysia, strain P 6-740)", "test": "Murine Zika virus model, treatment begun 4 h before infection (Example 3)", "conditions": "for relative virus levels vs placebo: FIG. 4; for weight change in grams between days 7 and 13 post-infection: FIG. 3B", "protocol": "The agents used in this experiment were compound A (the compound of formula I, where A is NH2 and B is H as the HCL salt) and ribavirin. Compound A was administered IM at 150 mg/kg/day and 300 mg/kg/day, each in a volume of 0.05 ml saline and ribavirin was administered IP at 75 mg/kg/day and 50 mg/kg/day, each in a volume of 0.1 ml saline. IM or IP administration of the daily dose was accomplished in two IM/IP injections of one-half the daily dose each. Mice were administered the first dose of Compound A and ribavirin 4 hours prior to infection with Zika virus and continued the treatment for 8 days post-infection.\nIn this experiment, Zika virus (Malaysia, strain P 6-740) was administered at a challenge dose of 100 CCID50 (10^3 pfu) per mouse via subcutaneous injection in a 0.1 ml volume.\nMice were monitored for survival 28 days post-virus challenge. Weight change for individual mice were taken on day 0 and every other day through the end of the experiments. Mice were observed daily for signs of disease including conjunctivitis, hunching, and limb weakness or paralysis.\nFor Zika virus infection and antiviral treatment studies, mice were randomly assigned to groups of 10 animals each. A 10^-3 dilution (10^4.0 pfu/mL) of the virus was prepared in MEM. Mice were challenged s.c. with 0.1 mL of the diluted virus (˜10^3.0 pfu/animal). All compound dosages were based on an average mouse weight of 22 g. Compounds were prepared in sterile saline less than 18 hours prior to initial administration in mice and stored at 4° C. for the duration of the study. Compound A was administered i.m., twice daily (bid) at 300 or 150 mg/kg/d. Ribavirin was given i.p., bid at 75 or 50 mg/kg/d. Treatments began 4 hours prior to virus challenge and continued for 8 days. The identity of the treatment groups was blinded to the technician administering treatments. Mortality was observed twice daily for 28 days, and the weight of each mouse was recorded on day 0 and then every other day from 1-19 days post-virus infection (dpi). Mice were humanely euthanized if they could no longer right themselves or were unresponsive to stimuli.\nFifty to 100 mg of freshly isolated tissue was ground with a pestle in 1 mL TRI Reagent (Sigma-Aldrich, St. Louis, MO) and total RNA was extracted. For the extraction of viral RNA from liquid samples, QlAamp Viral RNA Mini Spin kit was used according to the manufactures instructions (Qiagen, Valencia, CA). Extracted RNA was eluted with nuclease-free water and was amplified by a quantitative real-time RT-PCR using the Logix Smart Zika Test developed by Co-Diagnostics, Inc. (Bountiful, UT). Five μL of the master mix containing a set of primers and Rapid Probe, labeled with a FAM fluorophore and DABCYL quencher, was mixed with 2-5 μL of RNA and an appropriate volume of water for a final reaction volume of 10 μl. RNA was first reverse transcribed for 10 minutes at 55° C., followed by strand separation by heating to 95° C. for 20 seconds. The PCR reaction consisted of 40 cycles at 95° C. for 1 second and 55° C. for 20 seconds. A standard curve was generated with a synthetic RNA spanning the region of amplification and it was used to calculate the number of genome equivalents of the unknown samples."}, "Zika virus Uganda MR 766 [5]": {"test_system": "Zika virus Uganda MR 766", "test": "Virus yield reduction (VYR) assay", "format": "cell-based", "protocol": "as §1"}, "[6]": {"test_system": "Zika virus Malaysia P 6-740", "test": "Virus yield reduction (VYR) assay", "format": "cell-based", "protocol": "as §1"}, "[7]": {"test_system": "Zika virus Puerto Rico PRVABC59", "test": "Virus yield reduction (VYR) assay", "format": "cell-based", "conditions": "Puerto Rico PRVABC59", "protocol": "as §1"}, "[8]": {"test_system": "Zika virus KF993678 (Thai isolate)", "test": "Non-human primate Zika virus model, heterologous challenge day 70 (Example 6)", "format": "in vivo, Indian rhesus macaques", "conditions": "Groups 1 and 2, no additional dosing"}, "[9]": {"test_system": "Zika virus (Malaysia, strain P 6-740)", "test": "Murine Zika virus model, re-challenge on day 28 (Example 4)", "format": "in vivo, AG129 mice", "protocol": "In this example, the surviving mice from the study described in Example 3 were subject to re-challenge on day 28 post-infection. On day 28, the only surviving mice in a treatment group were in group 1 (7/8 mice), the normal controls (group 8, 8/8 mice) and the virus sham treated groups (group 2, 8/8 mice and group 6, 8/8/mice). All surviving mice (with the exception of normal controls) were administered a challenge of Zika virus identical to the initial challenge.\nNo animals in Groups 1, 2 and 6 were administered additional doses of Compound A on day 28 prior to or after re-challenge. In this experiment, the sham infected mice of groups 2 and 6 served as the control groups to analyze the effects of treatment of Compound A on immune system activation (note that mice in group 2 received the same 300 mg/kg/day dose of Compound A as the mice in group 1 on day 0). The survival of the mice was monitored through day 60 post-initial infection."}}, "data": [{"smiles": "Cl.Nc1ncnc2c([C@@H]3N[C@H](CO)[C@@H](O)[C@H]3O)c[nH]c12", "note": "[Compound A]", "values": [{"measurement": "CPE red. assay EC50", "setting": "Zika virus Uganda MR 766 [1]; Huh-7 cells", "value": "5.7 ± 0.9", "unit": "µg/mL"}, {"measurement": "CPE red. assay EC50", "setting": "Zika virus Uganda MR 766 [1]; RD cells", "value": "4.4 ± 1.3", "unit": "µg/mL"}, {"measurement": "CPE red. assay EC50", "setting": "Zika virus Uganda MR 766 [1]; Vero76 cells", "value": "11.7 ± 4.7", "unit": "µg/mL"}, {"measurement": "CPE red. assay EC50", "setting": "[2]; Huh-7 cells", "value": "5.5 ± 0.1", "unit": "µg/mL"}, {"measurement": "CPE red. assay EC50", "setting": "[2]; Vero76 cells", "value": "11.5 ± 4.4", "unit": "µg/mL"}, {"measurement": "CPE red. assay EC50", "setting": "[3]; Huh-7 cells", "value": "4.7 ± 0.6", "unit": "µg/mL"}, {"measurement": "CPE red. assay EC50", "setting": "[3]; RD cells", "value": "4.7 ± 2.2", "unit": "µg/mL"}, {"measurement": "CPE red. assay EC50", "setting": "[3]; Vero76 cells", "value": "3.8 ± 2.5", "unit": "µg/mL"}, {"measurement": "relative virus levels vs placebo", "setting": "[4]; 150 mg/kg/day IM (group 3)", "value": "decreased viral levels in a statistically significant manner"}, {"measurement": "survival", "setting": "[4]; 150 mg/kg/day IM bid x 8 days, begun -4 h (group 3)", "value": "all died by day 27 post-infection"}, {"measurement": "mortality curve vs placebo", "setting": "[4]; 150 mg/kg/day IM bid x 8 days, begun -4 h (group 3), p<0.001", "value": "delayed the mortality curve"}, {"measurement": "percent weight change", "setting": "[4]; 150 mg/kg/day IM, Zika infected (group 3), FIG. 3A", "value": "modest weight reduction starting around day 15 post-infection"}, {"measurement": "weight change in grams between days 7 and 13 post-infection", "setting": "[4]; 150 mg/kg/day IM", "value": "weight change similar to that seen in normal controls"}, {"measurement": "morbidity in surviving mice 28 days post-infection", "setting": "[4]; 300 mg/kg/day IM (group 1)", "value": "no morbidity was observed"}, {"measurement": "weight change in grams between days 7 and 13 post-infection", "setting": "[4]; 300 mg/kg/day IM (group 1)", "value": "weight change similar to that seen in normal controls"}, {"measurement": "relative virus levels vs placebo", "setting": "[4]; 300 mg/kg/day IM (group 1)", "value": "decreased viral levels in a statistically significant manner"}, {"measurement": "mice survived to day 28 post-infection", "setting": "[4]; 300 mg/kg/day IM bid x 8 days, begun -4 h (group 1), p<0.0001 vs placebo", "value": "7/8"}, {"measurement": "morbidity or mortality at day 28 in sham-infected mice", "setting": "[4]; 300 mg/kg/day IM bid x 8 days, sham infection (group 2)", "value": "No morbidity or mortality"}, {"measurement": "percent weight change", "setting": "[4]; 300 mg/kg/day IM, Zika infected (group 1), FIG. 3A", "value": "weight change similar to that seen in normal controls"}, {"measurement": "percent weight change in sham-infected mice", "setting": "[4]; 300 mg/kg/day IM, sham infection (group 2), FIG. 3A", "value": "weight change similar to that seen in normal controls"}, {"measurement": "VYR assay EC90", "setting": "Zika virus Uganda MR 766 [5]; Huh-7 cells", "value": 6.4, "unit": "µg/mL"}, {"measurement": "VYR assay EC90", "setting": "Zika virus Uganda MR 766 [5]; RD cells", "value": "5.4 ± 1.1", "unit": "µg/mL"}, {"measurement": "VYR assay EC90", "setting": "Zika virus Uganda MR 766 [5]; Vero76 cells", "value": 8.7, "unit": "µg/mL"}, {"measurement": "VYR assay EC90", "setting": "[6]; Huh-7 cells", "value": "4.9 ± 0.9", "unit": "µg/mL"}, {"measurement": "VYR assay EC90", "setting": "[6]; Vero76 cells", "value": "13.8 ± 3.7", "unit": "µg/mL"}, {"measurement": "VYR assay EC90", "setting": "[7]; Huh-7 cells", "value": "6.7 ± 1.2", "unit": "µg/mL"}, {"measurement": "VYR assay EC90", "setting": "[7]; RD cells", "value": "10.0 ± 2.2", "unit": "µg/mL"}, {"measurement": "VYR assay EC90", "setting": "[7]; Vero76 cells, virus harvested 5 dpi, 1 log10 CCID50 reduction", "value": "18.2 ± 2.7", "unit": "µg/mL"}, {"measurement": "viral RNA in serum after heterologous challenge", "setting": "[8]; FIG. 14A", "value": "minimal viral RNA"}, {"measurement": "viral RNA in CSF after heterologous challenge", "setting": "[8]; FIG. 14B", "value": "minimal viral RNA"}, {"measurement": "re-challenged mice surviving at day 60", "setting": "[9]; group 1 (300 mg/kg/day from day 0, 7 survivors), second Zika challenge day 28, no additional dosing", "value": 7, "unit": "mice"}, {"measurement": "survival after first Zika challenge on day 28", "setting": "[9]; group 2 (300 mg/kg/day from day 0, sham infected), no dosing at challenge", "value": "no survival was observed past day 51"}]}]}
